Assay results published in PubChem BioAssay (NCI).
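The compound was tested at five concentrations on cells cultured in 96-well plates, with a 48-hour exposure period. At the GI50, growth is halved. TGI: concentration producing complete growth inhibition.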

Legend:
Assay in all cases: growth of human tumour cells (NCI), 48 h
[1] = test system: 786-0 renal
[2] = test system: A498 renal
[3] = test system: A549 NSCLC
[4] = test system: ACHN renal
[5] = test system: BT-549 breast
[6] = test system: CAKI-1 renal
[7] = test system: CCRF-CEM leukemia
[8] = test system: COLO 205 colon
[9] = test system: DU-145 prostate
[10] = test system: EKVX NSCLC
[11] = test system: HCC-2998 colon
[12] = test system: HCT-116 colon
[13] = test system: HCT-15 colon
[14] = test system: HL-60(TB) leukemia
[15] = test system: HOP-62 NSCLC
[16] = test system: HOP-92 NSCLC
[17] = test system: HS 578T breast
[18] = test system: HT29 colon
[19] = test system: K-562 leukemia
[20] = test system: KM12 colon
[21] = test system: LOX IMVI melanoma
[22] = test system: M14 melanoma
[23] = test system: MALME-3M melanoma
[24] = test system: MCF7 breast
[25] = test system: MDA-MB-231 breast
[26] = test system: MDA-MB-435
[27] = test system: MOLT-4 leukemia
[28] = test system: NCI-H226 lung
[29] = test system: NCI-H23 lung
[30] = test system: NCI-H460 lung
[31] = test system: NCI-H522 lung
[32] = test system: NCI/ADR-RES ovarian
[33] = test system: OVCAR-3 ovarian
[34] = test system: OVCAR-4 ovarian
[35] = test system: OVCAR-5 ovarian
[36] = test system: OVCAR-8 ovarian
[37] = test system: PC-3 prostate
[38] = test system: RPMI-8226 leukemia
[39] = test system: RXF 393 renal
[40] = test system: SF-268 CNS
[41] = test system: SF-295 CNS
[42] = test system: SF-539 CNS
[43] = test system: SK-MEL-2 melanoma
[44] = test system: SK-MEL-28 melanoma
[45] = test system: SK-MEL-5 melanoma
[46] = test system: SK-OV-3 ovarian
[47] = test system: SNB-19 CNS
[48] = test system: SNB-75 CNS
[49] = test system: SR leukemia
[50] = test system: SW-620 colon
[51] = test system: T-47D breast
[52] = test system: TK-10 renal
[53] = test system: U251 CNS
[54] = test system: UACC-257 melanoma
[55] = test system: UACC-62 melanoma
[56] = test system: UO-31 renal

**Q.** How did the GI50 [1] turn out when `CCc1nc2cc(/C=C/C(=O)NO)ccc2c(=O)n1CCc1ccc(OC)cc1` was run?
**A.** 2310 nM

**Q.** What about the TGI [1] of the same compound?
**A.** 6.28 µM

**Q.** What about the GI50 [2] of the same compound?
**A.** 1170 nM

**Q.** And the TGI [2]?
**A.** 3.39 µM

**Q.** And the GI50 [3]?
**A.** 3.56 µM

**Q.** And the TGI [3]?
**A.** 15.1 µM

**Q.** What about the GI50 [4] of the same compound?
**A.** 1850 nM

**Q.** What about the TGI [4] of the same compound?
**A.** 4.36 µM

**Q.** And the GI50 [5]?
**A.** 4.02 µM

**Q.** And the TGI [5]?
**A.** 34.6 µM

**Q.** What about the GI50 [6] of the same compound?
**A.** 2980 nM

**Q.** What about the TGI [6] of the same compound?
**A.** 10.7 µM

**Q.** What about the GI50 [7] of the same compound?
**A.** 3.17 µM

**Q.** What about the TGI [7] of the same compound?
**A.** > 100 µM

**Q.** What about the GI50 [8] of the same compound?
**A.** 1940 nM

**Q.** What about the TGI [8] of the same compound?
**A.** 5.13 µM

**Q.** What about the GI50 [9] of the same compound?
**A.** 2190 nM

**Q.** And the TGI [9]?
**A.** 10.3 µM

**Q.** And the GI50 [10]?
**A.** 3.91 µM

**Q.** And the TGI [10]?
**A.** 43.9 µM

**Q.** And the GI50 [11]?
**A.** 4.06 µM

**Q.** And the TGI [11]?
**A.** 62.1 µM

**Q.** And the GI50 [12]?
**A.** 1590 nM

**Q.** And the TGI [12]?
**A.** 9.51 µM

**Q.** And the GI50 [13]?
**A.** 3.24 µM

**Q.** And the TGI [13]?
**A.** > 100 µM

**Q.** And the GI50 [14]?
**A.** 3.47 µM

**Q.** What about the TGI [14] of the same compound?
**A.** > 100 µM

**Q.** And the GI50 [15]?
**A.** 2450 nM

**Q.** What about the TGI [15] of the same compound?
**A.** 7.68 µM

**Q.** What about the GI50 [16] of the same compound?
**A.** 1900 nM

**Q.** And the TGI [16]?
**A.** 5.7 µM

**Q.** And the GI50 [17]?
**A.** 2130 nM

**Q.** And the TGI [17]?
**A.** 34.3 µM

**Q.** What about the GI50 [18] of the same compound?
**A.** 2310 nM

**Q.** And the TGI [18]?
**A.** 49.5 µM

**Q.** And the GI50 [19]?
**A.** 3.07 µM

**Q.** And the TGI [19]?
**A.** > 100 µM

**Q.** What about the GI50 [20] of the same compound?
**A.** 3.42 µM

**Q.** What about the TGI [20] of the same compound?
**A.** > 100 µM

**Q.** What about the GI50 [21] of the same compound?
**A.** 1680 nM

**Q.** And the TGI [21]?
**A.** 3.19 µM

**Q.** And the GI50 [22]?
**A.** 2880 nM

**Q.** And the TGI [22]?
**A.** 10.4 µM

**Q.** What about the GI50 [23] of the same compound?
**A.** 1530 nM

**Q.** And the TGI [23]?
**A.** 8.28 µM

**Q.** What about the GI50 [24] of the same compound?
**A.** 2380 nM

**Q.** And the TGI [24]?
**A.** 17.7 µM

**Q.** And the GI50 [25]?
**A.** 2310 nM

**Q.** What about the TGI [25] of the same compound?
**A.** 7.66 µM

**Q.** What about the GI50 [26] of the same compound?
**A.** 2700 nM

**Q.** And the TGI [26]?
**A.** 42.6 µM

**Q.** What about the GI50 [27] of the same compound?
**A.** 2500 nM

**Q.** What about the TGI [27] of the same compound?
**A.** > 100 µM

**Q.** And the GI50 [28]?
**A.** 2870 nM

**Q.** What about the TGI [28] of the same compound?
**A.** 17.3 µM

**Q.** What about the GI50 [29] of the same compound?
**A.** 2400 nM

**Q.** What about the TGI [29] of the same compound?
**A.** 7.89 µM

**Q.** And the GI50 [30]?
**A.** 1830 nM

**Q.** And the TGI [30]?
**A.** 10.1 µM

**Q.** And the GI50 [31]?
**A.** 1430 nM

**Q.** And the TGI [31]?
**A.** 4.66 µM

**Q.** What about the GI50 [32] of the same compound?
**A.** 1350 nM

**Q.** And the TGI [32]?
**A.** 12.3 µM

**Q.** What about the GI50 [33] of the same compound?
**A.** 2030 nM

**Q.** What about the TGI [33] of the same compound?
**A.** 7.19 µM

**Q.** What about the GI50 [34] of the same compound?
**A.** 2960 nM

**Q.** What about the TGI [34] of the same compound?
**A.** 58.7 µM

**Q.** And the GI50 [35]?
**A.** 2500 nM

**Q.** And the TGI [35]?
**A.** 30 µM

**Q.** And the GI50 [36]?
**A.** 2270 nM

**Q.** And the TGI [36]?
**A.** 15.5 µM

**Q.** And the GI50 [37]?
**A.** 3.32 µM

**Q.** What about the TGI [37] of the same compound?
**A.** > 100 µM

**Q.** What about the GI50 [38] of the same compound?
**A.** 2380 nM

**Q.** And the TGI [38]?
**A.** 56.1 µM

**Q.** And the GI50 [39]?
**A.** 1740 nM

**Q.** And the TGI [39]?
**A.** 4.74 µM

**Q.** What about the GI50 [40] of the same compound?
**A.** 2440 nM

**Q.** And the TGI [40]?
**A.** 13.1 µM

**Q.** What about the GI50 [41] of the same compound?
**A.** 2160 nM

**Q.** What about the TGI [41] of the same compound?
**A.** 5.39 µM

**Q.** What about the GI50 [42] of the same compound?
**A.** 1910 nM

**Q.** What about the TGI [42] of the same compound?
**A.** 6.29 µM

**Q.** What about the GI50 [43] of the same compound?
**A.** 3.66 µM

**Q.** And the TGI [43]?
**A.** 24.9 µM

**Q.** And the GI50 [44]?
**A.** 3.31 µM

**Q.** And the TGI [44]?
**A.** 15.1 µM

**Q.** And the GI50 [45]?
**A.** 1960 nM

**Q.** And the TGI [45]?
**A.** 5.09 µM

**Q.** And the GI50 [46]?
**A.** 2420 nM

**Q.** What about the TGI [46] of the same compound?
**A.** 6.11 µM

**Q.** And the GI50 [47]?
**A.** 3.21 µM

**Q.** What about the TGI [47] of the same compound?
**A.** 21.4 µM

**Q.** What about the GI50 [48] of the same compound?
**A.** 2620 nM

**Q.** And the TGI [48]?
**A.** 33.2 µM

**Q.** And the GI50 [49]?
**A.** 1940 nM

**Q.** And the TGI [49]?
**A.** > 100 µM

**Q.** And the GI50 [50]?
**A.** 1930 nM

**Q.** And the TGI [50]?
**A.** 13 µM

**Q.** What about the GI50 [51] of the same compound?
**A.** 1570 nM

**Q.** And the TGI [51]?
**A.** 7.13 µM

**Q.** What about the GI50 [52] of the same compound?
**A.** 1600 nM

**Q.** What about the TGI [52] of the same compound?
**A.** 5.79 µM

**Q.** And the GI50 [53]?
**A.** 1990 nM

**Q.** What about the TGI [53] of the same compound?
**A.** 4.87 µM

**Q.** And the GI50 [54]?
**A.** 2930 nM

**Q.** What about the TGI [54] of the same compound?
**A.** 9.33 µM

**Q.** What about the GI50 [55] of the same compound?
**A.** 1590 nM

**Q.** And the TGI [55]?
**A.** 4.33 µM

**Q.** And the GI50 [56]?
**A.** 1500 nM

**Q.** And the TGI [56]?
**A.** 5.13 µM
